Literature values in patent US20220054467A1, “TREATMENT OF PSORIASIS WITH TOPICAL TAPINAROF-TAZAROTENE COMBINATION COMPOSITIONS” (Sol-Gel Technologies Ltd., priority 2019, published 2022).
Where two headings read alike, the source gives them in different places.

Experiments:
[1] = test system: plaque psoriasis
[2] = as a single drug; placebo 20.2%
[3] = test system: interleukin-6 and interleukin-17A; settings: mouse models
[4] = test system: interleukin-6 and interleukin-17A; settings: in vitro human skin
[5] = 1% tapinarof arm vs. the 0.5% arm or vehicle

CC(C)c1c(O)cc(/C=C/c2ccccc2)cc1O [Tapinarof, 3,5-dihydroxy-4-isopropyl-trans-stilbene]
efficacy [1, 5]: higher efficacy
onset of action [1, 5]: quicker onset of action
most frequent adverse events ([1]; topical cream, clinical studies): folliculitis and contact dermatitis
adverse effects [2]: 44.5%
effect on proinflammatory mediators, including interleukin-6 and interleukin-17A [3]: inhibit specific proinflammatory mediators
effect on skin barrier function [3]: enhance skin barrier function
effect on proinflammatory mediators, including interleukin-6 and interleukin-17A [4]: inhibit specific proinflammatory mediators
effect on skin barrier function [4]: enhance skin barrier function

C=C1/C(=C\C=C2/CCC[C@]3(C)[C@@H]([C@H](C)/C=C/[C@@H](O)C4CC4)CC[C@@H]23)C[C@@H](O)C[C@@H]1O [calcipotriene]
adverse effects [2]: 19.5%
